Test results taken from patent publication US20240025862A1, “SUBSTITUTED N-PHENYLURACILS AND SALTS THEREOF, AND USE THEREOF AS HERBICIDAL ACTIVE SUBSTANCES” (Bayer Aktiengesellschaft, priority 2020, published 2024).

Assays:
Assay type in all cases: in vivo
[1] = system: Abutilon theophrasti (ABUTH); assay: Post-emergence herbicidal action, greenhouse pot test; conditions: rated visually after about 3 weeks vs untreated controls, 100% = plants have died
Description: (§1) Seeds of monocotyledonous and dicotyledonous weeds and crop plants were placed in sandy loam in plastic or wood-fiber pots, covered with soil and cultivated in a greenhouse under controlled growth conditions. 2 to 3 weeks after sowing, the test plants were treated at the one-leaf stage. The compounds of the invention, formulated in the form of wettable powders (WP) or as emulsion concentrates (EC), were then sprayed onto the green parts of the plants as aqueous suspension or emulsion with addition of 0.5% additive at a water application rate of 600 l/ha (converted). After the test plants had been kept in the greenhouse under optimum growth conditions for about 3 weeks, the activity of the preparations was rated visually in comparison to untreated controls. For example, 100% activity=the plants have died, 0% activity=like control plants.
(§2) Tables A1 to A14 below show the effects of selected compounds of the general formula (I) according to Tables I.1 to I.33 on various harmful plants and at an application rate corresponding to 20 g/ha and less, which were obtained by the experimental method specified above. The appendices “a”, “b” and “c” give differentiation by different dosage with otherwise the same harmful plants tested.

[2] = system: Amaranthus retroflexus (AMARE); assay: as above; conditions: rated visually after about 3 weeks vs untreated controls, 100% = plants have died
Description: as §1, §2

[3] = system: Pharbitis purpurea (PHBPU); assay: as above
Description: as §1, §2

[4] = system: Polygonum convolvulus (POLCO); assay: as above
Description: as §1, §2

Veronica persica (VERPE) = assay: as above
Description: as §1, §2

Viola tricolor (VIOTR) = assay: as above
Description: as §1, §2

[5] = system: Echinochloa crus-galli (ECHCG); assay: Post-emergence herbicidal action, greenhouse pot test (also comparative test C)
Description: as §1, §2
(§3) C. Comparative Herbicidal Action and Crop Plant Compatibility of Two Inventive Compounds (I.7-1 and I.7-115) with a Compound of Similar Structure Known from the Literature (WO2002/098227, a-17 and EP1106607, 3-14) in Post-Emergence Treatment.
(§4) Tables C1-C4 below show the effects of two inventive compounds (I.7-1 and I.7-115) together with a compound of similar structure known from the literature (a-17 in WO2002/098227, and 3-14 in EP1106607) in different crop plants at an application rate corresponding to 5 g/ha or less, which have been obtained by the aforementioned experimental procedure.

[6] = system: Matricaria inodora (MATIN); assay: as above
Description: as §1, §2, §3, §4

Setaria viridis (SETVI) = assay: as above; conditions: for Post-emergence action against SETVI: 20 g/ha
Description: as §1, §2, §3, §4

[7] = system: Triticum aestivum (TRZAS); assay: Post-emergence crop plant compatibility, greenhouse pot test; conditions: vs untreated controls
Description: as §1
(§5) The observed effects on selected crop plants are reported here in comparison to the untreated controls (values in %). The appendices “a”, “b” and “c” give differentiation by different dosage with otherwise the same crop plants tested.

Zea mays (ZEAMX) = assay: as above; conditions: 1.25 g/ha, vs untreated controls
Description: as §1, §5

Oryza sativa (ORYSA) = assay: Post-emergence crop plant compatibility, greenhouse pot test (also comparative test C); conditions: for Post-emergence action against ORYSA (crop plant compatibility): vs untreated controls
Description: as §1, §5, §3

[8] = system: Alopecurus myosuroides (ALOMY); assay: Post-emergence herbicidal action, greenhouse pot test (also comparative test C); conditions: 20 g/ha, rated visually after about 3 weeks vs untreated controls, 100% = plants have died
Description: as §1, §2, §3, §4

| Post-emergence action against TRZAS (crop plant compatibility) ([7]; 1.25 g/ha) [%] | Structure (SMILES) | Post-emergence action at 5 g/ha against ABUTH in % [1] [%] | Post-emergence action at 20 g/ha against ABUTH in % [1] [%] | Post-emergence action at 1.25 g/ha against AMARE in % [2] [%] | Post-emergence action at 5 g/ha against AMARE in % [2] [%] | Post-emergence action at 20 g/ha against AMARE in % [2] [%] | Post-emergence action against PHBPU in % ([3]; dosage 5 g/ha) [%] | Post-emergence action against PHBPU in % ([3]; dosage 20 g/ha) [%] | Post-emergence action against POLCO in % ([4]; dosage 20 g/ha) [%] | Post-emergence action against VERPE (Veronica persica (VERPE); 5 g/ha) [%] | Post-emergence action against VERPE (Veronica persica (VERPE); 20 g/ha) [%] | Post-emergence action against VIOTR (Viola tricolor (VIOTR); 1.25 g/ha) [%] | Post-emergence action against VIOTR (Viola tricolor (VIOTR); 5 g/ha) [%] | Post-emergence action against VIOTR (Viola tricolor (VIOTR); 20 g/ha) [%] | Post-emergence action against ECHCG in % ([5]; dosage 5 g/ha) [%] | Post-emergence action against ECHCG in % ([5]; dosage 20 g/ha) [%] | Post-emergence action against MATIN in % ([6]; dosage 20 g/ha) [%] | Post-emergence action against SETVI (Setaria viridis (SETVI)) [%] | Post-emergence action against SETVI in % (Setaria viridis (SETVI); dosage 1.25 g/ha) [%] | Post-emergence action against SETVI in % (Setaria viridis (SETVI); dosage 5 g/ha) [%] | also measured |
| --- | --- | --- | --- | --- | --- | --- | --- | --- | --- | --- | --- | --- | --- | --- | --- | --- | --- | --- | --- | --- | --- |
| 0 | COCCOC(=O)COc1ccccc1Oc1cc(-n2c(=O)cc(C(F)(F)F)n(C)c2=O)c(F)cc1C#N [I.9-1] | 100 | 100 | 100 | 100 | 100 | 100 | 100 | 100 | 100 | 100 | 100 | 100 | 100 | 90 | 100 | 100 | 100 | 80 | 100 | Post-emergence action at 1.25 g/ha against ABUTH in % [1]: 100%; Post-emergence action against VERPE (Veronica persica (VERPE); 1.25 g/ha): 100%; Post-emergence action against MATIN in % ([6]; dosage 5 g/ha): 80%; Post-emergence action against TRZAS (crop plant compatibility) ([7]; 5 g/ha): 10%; Post-emergence action against TRZAS (crop plant compatibility) ([7]; 20 g/ha): 10%; Post-emergence action against ZEAMX (crop plant compatibility) (Zea mays (ZEAMX)): 10%; Post-emergence action against ORYSA (crop plant compatibility) (Oryza sativa (ORYSA); 1.25 g/ha): 0%; Post-emergence action against ORYSA (crop plant compatibility) (Oryza sativa (ORYSA); 5 g/ha): 20% |
| 20 | COCCOCCOC(=O)COc1ccc(F)cc1Oc1cc(-n2c(=O)cc(C(F)(F)F)n(C)c2=O)c(F)cc1Cl [I.23-23] | 100 | 100 | 100 | 100 | 100 | 100 | 100 | 100 | 100 | 100 | 100 | 100 | 100 | 100 | 100 | 100 | 100 | 100 | 100 | Post-emergence action against PHBPU in % ([3]; dosage 1.25 g/ha): 100%; Post-emergence action against POLCO in % ([4]; dosage 1.25 g/ha): 100%; Post-emergence action against POLCO in % ([4]; dosage 5 g/ha): 100%; Post-emergence action at 20 g/ha against ALOMY in % [8]: 100%; Post-emergence action against ZEAMX (crop plant compatibility) (Zea mays (ZEAMX)): 20% |
| 20 | Cn1c(C(F)(F)F)cc(=O)n(-c2cc(Oc3cc(F)ccc3OCC(=O)OCc3ccccn3)c(Cl)cc2F)c1=O [I.23-276] | 100 | 100 | 90 | 100 | 100 | 100 | 100 | 100 | 100 | 100 | 80 | 100 | 100 | 100 | 100 | 90 | 100 | 100 | 100 | Post-emergence action at 1.25 g/ha against ABUTH in % [1]: 90%; Post-emergence action against PHBPU in % ([3]; dosage 1.25 g/ha): 90%; Post-emergence action against VERPE (Veronica persica (VERPE); 1.25 g/ha): 80%; Post-emergence action at 20 g/ha against ALOMY in % [8]: 100%; Post-emergence action at 1.25 g/ha against ECHCG in % ([5]; 1.25 g/ha, rated visually after about 3 weeks vs untreated controls, 100% = plants have died): 100%; Post-emergence action against TRZAS (crop plant compatibility) ([7]; 5 g/ha): 20%; Post-emergence action against ORYSA (crop plant compatibility) (Oryza sativa (ORYSA); 1.25 g/ha): 0%; Post-emergence action against ORYSA (crop plant compatibility) (Oryza sativa (ORYSA); 5 g/ha): 10%; Post-emergence action against ORYSA in % (Oryza sativa (ORYSA); 20 g/ha, crop plant compatibility): 10% |
